Source: patent US5502242A, “Propiolate ester compound an acaricide containing the same as an active ingredient and an acaricidal method” (Sumitomo Chemical Company, Limited, priority 1993, dated 1996)

How the values were obtained:
Assay type in all cases: in vivo
[1] = system: Dermatophagoides pteronyssinus; assay: Residual activity against Dermatophagoides pteronyssinus (treated filter paper, Biological Test Example 2); settings: 24 h, 0.8 g/m^2 on filter paper, mites put on seven days after treatment, mortality after one day
Source text: A piece of filter paper (diameter: 4 cm) was impregnated uniformly with an acetone solution of the compound sample so that the amount of the compound was 0.8 g/m^2 after being air-dried. After seven days, approximately twenty heads of mites (Dermatophagoides pteronyssinus) were put on the surface of the treated filter paper. An adhesive substance was applied on the circumference of the filter paper for preventing escape. After one day, the mortality was examined.

Tyrophagus putrescentiae [2] = assay: Activity against Tyrophagus putrescentiae (treated filter paper, Biological Test Example 1); settings: 24 h, 0.8 g/m^2 on filter paper, after one day
Source text: (§1) A piece of filter paper (diameter: 4 cm) was impregnated uniformly with an acetone solution of the present compound so that the amount of the impregnated compound was 0.8 g/m^2 after being air-dried. Approximately twenty heads of mites (Tyrophagus putrescentiae, Dermatophagoides farinae Hughes and Dermatophagoides pteronyssinuis) were put on the surface of the treated filter paper. An adhesive substance was applied on the circumference of the filter paper for preventing escape. After one day, the mortality was examined. The results for Tyrophagus putrescentiae, Dermatophagoides farinae Hughes and Dermatophagoides pteronyssinus are shown in Table 3, Table 4, and Table 5, respectively.

[3] = system: Dermatophagoides farinae Hughes; assay: Activity against Dermatophagoides farinae Hughes (treated filter paper, Biological Test Example 1); settings: 24 h, 0.8 g/m^2 on filter paper, after one day
Source text: as §1

[4] = system: Dermatophagoides pteronyssinus; assay: Activity against Dermatophagoides pteronyssinus (treated filter paper, Biological Test Example 1); settings: 24 h, 0.8 g/m^2 on filter paper, after one day
Source text: as §1

Tyrophagus putrescentiae [5] = assay: Fumigating activity against Tyrophagus putrescentiae (heated porous ceramic plate in peat grady chamber, Biological Test Example 3); settings: 24 h, 55 mg/m^3, ceramic plate heated at 175° C., after twenty-four hours
Source text: A piece of filter paper (diameter: 4 cm) was placed in an aluminum plate and an adhesive substance was applied on the circumference of the filter paper for preventing escape. Fifty to a hundred heads of mites (Tyrophagus putrescentiae) were put with little feed on the filter paper. Three sets of such filter paper with mites were placed on three corners (approximately 30 cm from the wall) in a floor of a peat grady chamber (1.8 m ×1.8 m ×1.8 m). A porous ceramic plate (4 cm ×4 cm ×1.2 cm) impregnated with an acetone solution of the present compound (concentration: 55 mg/m^3) was heated at 175° C. with an electric heater placed on the center of the floor of the chamber. After twenty-four hours, the mortality was examined.

Compound	mortality at 0.8 g/m2 [1]	mortality at 0.8 g/m2 (Tyrophagus putrescentiae [2])	mortality at 0.8 g/m2 [3]	mortality at 0.8 g/m2 [4]	mortality at 55 mg/m3 (Tyrophagus putrescentiae [5])
C#CC(=O)OCCOCc1ccc(CC)cc1 [Compound 28]	97%	100%	100%		
C#CC(=O)OCC(C)COc1ccccc1 (centres unmarked) [Compound 23]	100%	100%	100%		
C#CC(=O)OCCCOc1ccc(C)cc1C [Compound 9]	100%	100%	100%	100%	
C#CC(=O)OCCCOCc1ccccc1 [Compound 17]	100%	100%	100%	100%	
C#CC(=O)OCC(C)OCc1ccccc1 (centres unmarked) [Compound 29]	82%	100%	100%		
C#CC(=O)OCCCCCCc1ccccc1 [Compound 2, 6-phenylhexyl propiolate]	100%	100%	100%	100%	73%
C#CC(=O)OCCCCCOc1ccccc1 [Compound 8]	100%	100%	100%	100%	
C#CC(=O)OCCCCOc1c(C(C)C)cccc1C(C)C [Compound 15]	95%	100%	100%	100%	
C#CC(=O)OCCCCOc1ccc(CC)cc1 [Compound 22]	100%	96%	100%		
C#CC(=O)OCCCCOc1c(C)cccc1C [Compound 13]	92%	100%	100%	100%	
C#CC(=O)OCCCCCOc1c(C)cccc1C [Compound 14]	100%	100%	100%	100%	
C#CC(=O)OCCCCCCCCCc1ccccc1 [Compound 5]	100%	100%	100%	100%	
C#CC(=O)OCCCOc1ccc(CC)cc1 [Compound 20]	100%	100%	100%		
O=C(Oc1ccccc1)c1ccccc1O [Phenyl salicylate, reference compound]					28%
C#CC(=O)OCCCCOc1ccc(C)cc1 [Compound 11, 4-(4-methylphenoxy)butyl propiolate]	100%	100%	100%	100%	79%
C#CC(=O)OCC(C)COc1ccc(C)cc1 (centres unmarked) [Compound 24]	100%	100%	100%		
C#CC(=O)OCCOCc1ccccc1 [Compound 16, 2-benzyloxyethyl propiolate]	83%	100%	100%	100%	
C#CC(=O)OCCCCCCCCc1ccccc1 [Compound 4]	100%	100%	100%	100%	
C#CC(=O)OCCC(C)COc1ccc(C)cc1 (centres unmarked) [Compound 26]	94%	100%	96%		
C#CC(=O)OCCCCCCOc1ccccc1 [Compound 19]	100%	100%	100%		
C#CC(=O)OCCCOc1ccccc1 [Compound 6]	100%	100%	100%	100%	
C#CC(=O)OCCCCCc1ccccc1 [Compound 1, 5-phenylpentyl propiolate]	95%	100%	100%	100%	76%
C#CC(=O)OCCCCCCCc1ccccc1 [Compound 3, 7-phenylheptyl propiolate]	100%	100%	100%	100%	96%
C#CC(=O)OCCCCCOc1ccc(C)cc1 [Compound 21]	100%	100%	100%		
C#CC(=O)OCCCCOc1ccccc1 [Compound 7]	100%	100%	100%	100%	
C#CC(=O)OCCCCOc1ccccc1C [Compound 10, 4-(2-methylphenoxy)butyl propiolate]	100%	100%	100%	100%	
C#CC(=O)OCCOCc1ccc(C)cc1 [Compound 18]	100%	100%	100%	100%	
C#CC(=O)OCCC(C)COc1ccccc1 (centres unmarked) [Compound 25]	100%	100%	100%		
C#CC(=O)OCCCOc1c(C)cccc1C [Compound 27]	100%	100%	86%		
C#CC(=O)OCCCCOc1ccc(C)cc1C [Compound 12]	100%	100%	100%	100%	
